{"source": "paper PMC6155913", "about": "“Reaction of 3-Amino-1,2,4-Triazole with Diethyl Phosphite and Triethyl Orthoformate: Acid-Base Properties and Antiosteoporotic Activities of the Products” (Molecules : A Journal of Synthetic Chemistry and Natural …, 2017)", "key": {"[1]": {"details": "cited from earlier work"}, "[2]": {"assay": "Protonation constants by potentiometric titration", "assay_type": "physicochemical", "details": "Potentiometry, 0.1 M KCl, 25 °C, [L] = 1 × 10^−3 M, error 1σ", "method": "(§1) The acid-base properties of compounds 1 and 2 were determined to understand their behaviour in aqueous solutions. These studies were performed using potentiometry prompted by pH-UV titration studies and, for compound 1, pH*-NMR titration studies (pH* = pH uncorrected for the isotopic effect).\nThe titration studies of the compounds were carried out in double-distilled water using a Metrohm 809 Titrando system equipped with a combined glass electrode (Metrohm 6.0224.100) which was calibrated daily for hydrogen concentration using HCl (Merck, Warsow, Poland) (0.004 M) according to the procedure of Irving et al.. The ionic strength was fixed at I = 0.1 M with KCl (POCh). Alkali, CO2-free 0.1017 M KOH solution (POCh) was standardized by titration with potassium hydrogen phthalate (Merck). The ionic product of water under the experimental conditions was 10^−13.77 mol^2·dm^−6. The purity and exact concentration of each ligand were determined by the method of Gran. The titrations were carried out on 2.0 mL samples in a thermostatted cell at 25 ± 0.2 °C under a stream of Ar. The HYPERQUAD2013 computer program was applied to calculate the protonation constants. Triplicate titrations of each ligand (177–222 points) in a concentration of 1.0 × 10^−3 mol·dm^−3 were performed and used for the calculations. The distribution curves of the protonated species of the compounds (marked as L) as a function of pH were calculated using the HySS2009 program."}, "[3]": {"test_system": "mouse macrophage-like J774E cells", "assay": "Antiproliferative activity, MTT assay", "assay_type": "cell-based", "details": "J774E macrophages, 72 h exposure", "method": "To screen for potential antiosteoporotic activity of the bisphosphonates, their antiproliferative activity towards in vitro cell cultures was determined. J774E macrophages and osteoclasts are both derived from haematopoietic lineage and are highly endocytic and capable of demineralizing bone particles. Therefore, they are models for studies on the influence of bisphosphonates on the proliferation and activity of […]. For this purpose, mouse macrophage-like J774E cells, originating from the same precursors as the osteoclasts, were used. Such cells are well recognized for being sensitive to bisphosphonates, which likely act by inducing apoptosis in the cells. The J744E cell line was obtained from a cell bank at the Ludwik Hirszfeld Institute of Immunology and Experimental Therapy, Polish Academy of Sciences.\nThis experiment was performed according to a previously published procedure. To use the cell line, it is necessary to first thaw the cells using a water bath at 37 °C and gentle stirring. The cells were placed into the culture medium. This line was passaged 2 times a week in RPMI (growth medium consisting of 10% FBS, 100 μg/mL streptomycin, 100 U/mL penicillin and 2 mM glutamine) in Petri dishes. The cell growth was monitored under a microscope, and part of the material was used in the next stage of the experiment. Then, the cells were separated from the bottom (the surface proteins present on the plasma membrane allowing adhesion were destroyed) and were collected from the culture vessel. Then, in a Bürker chamber, the cell density was counted using a drop of cell suspension in a mixture ratio of 1:1 with trypan blue.\nThen, a 96-well microtiter plate assay was performed with 100 μL of cells (5 × 10^4/mL) in a cultivation solution followed, after 24 h, by the addition of 100 μL of a solution of the tested compound (10^−3, 10^−4, 10^−5, or 10^−6 M) in the same medium. Plates were incubated at 37 °C in a humidified atmosphere saturated with 5% CO2. The in vitro cytotoxicities of all agents were examined by colorimetric MTT assay after 72 h of exposure of the cultured cells to varying concentrations of the tested compounds [32]. Briefly, 20 μL of the MTT solution (MTT: 3-(4,5-dimethylthiazol-2-yl)-2,5-diphenyl tetrazolium bromide) was added to each well and incubated for 4 h. After the incubation period was completed, 80 μL of the lysing mixture was added to each well (lysing mixture: 225 mL dimethylformamide, 67.5 g sodium dodecyl sulfate and 275 mL of distilled water). The optical densities of the samples were determined after 24 h using a Multiskan RC photometer (Labsystems, Helsinki, Finland) at 570 nm."}, "[4]": {"assay": "Protonation constants by pH-UV (UV-Vis) titration", "assay_type": "physicochemical", "details": "0.1 M KCl, 25 °C, [L] = 7 × 10^−5 M, error 1σ", "method": "as §1\nThe results of the potentiometric studies are supported by spectroscopic determination of the pK values of the studied compounds. The results, obtained from electronic spectra generated in the HypSpec program for the detected species, are presented in Table 2 and Figure S1. […] For compound 1, the band at approximately 215 nm was already present under a very acidic pH value (pH 1.57) (Figure 4). This band is assigned to the protonated 1,2,4-triazole. The band underwent a bathochromic shift to 230 nm when the pH rises, which is assigned to the H4L → H3L^− + H^+ deprotonation process at a pK4 of 4.22 or 4.16 (estimated potentiometrically or spectrophotometrically, respectively). This was the biggest change in absorption for the spectroscopic determination by UV spectrophotometry. This change was the reason for assigning the pK4 value to the deprotonation of 1,2,4-triazole. Adequate changes occur for the spectra of compound 2. […] Generally, spectroscopic titrations (see Figure S23 Supplementary Materials) are in a good agreement with potentiometric titrations and provide similar pK values.\nAbsorption spectra for the compounds were collected using a Varian Cary 50 spectrophotometer (Varian, Mulgrave, Victoria, Australia) in Quartz Hellma curvets with a 1 cm optical path. The solutions were prepared by dissolving the appropriate concentration of ligands ([L] = 7 × 10^−5 mol·dm^−3) in 0.004 M HCl with 0.1 M ionic strength (KCl). The background electrolyte was used as a baseline reference. Solution pH was changed manually by adding small amounts of concentrated potassium hydroxide and checked the pH using the 913 Metrohm pH meter equipped with a combined glass electrode (Metrohm 6.0224.100, Herisau, Switzerland). The protonation constants and spectral deconvolution were refined using the least squares fitting program HypSpec. Factor analysis by the HypSpec software (http://www.hyperquad.co.uk/) was implemented to characterize the number of species present in the solution."}}, "note": "Read-outs that look alike come from different tables or passages of the source.", "data": [{"molecule": "c1c[nH]nn1", "note": "[1,2,3-triazole]", "values": [{"measurement": "pK of triazole", "setting": "[1]; unsubstituted triazole", "result": 9.26}]}, {"molecule": "c1nc[nH]n1", "note": "[1,2,4-triazole]", "values": [{"measurement": "pK of triazole", "setting": "[1]; unsubstituted triazole", "result": 9.95}]}, {"molecule": "OCCCn1cc(-c2ccccn2)nn1", "note": "[3-(4-(pyridine-2-yl)-1H-1,2,3-triazol-1-yl-propan-1-ol]", "values": [{"measurement": "pK of triazole", "setting": "[1]; 1,2,3-triazole-pyridines, previously reported", "result": 3.40}]}, {"molecule": "Nc1nc[nH]n1", "note": "[3-amino-1,2,4-triazole]", "values": [{"measurement": "pK of triazole", "setting": "[1]; substituted triazole, previously reported", "result": 4.20}]}, {"molecule": "O=P(O)(O)C(Nc1nc[nH]n1)P(=O)(O)O", "note": "[Compound 1, 1,2,4-Triazolyl-3-yl-Aminomethylenebisphosphonic Acid]", "values": [{"measurement": "pK1(HL) amine", "setting": "[2]", "result": "11.52(3)"}, {"measurement": "pK2(H2L) phosphonate", "setting": "[2]", "result": "9.62(3)"}, {"measurement": "pK3(H3L) phosphonate", "setting": "[2]", "result": "6.54(4)"}, {"measurement": "pK5(H5L) phosphonate", "setting": "[2]", "result": "1.48(4)"}, {"measurement": "pK2(H2L) phosphonate", "setting": "[2]; listed as compound 1", "result": 9.62}, {"measurement": "pK3(H3L) phosphonate", "setting": "[2]; listed as compound 1", "result": 6.54}, {"measurement": "pK4(H4L) triazole", "setting": "[2]; listed as compound 1", "result": 4.22}, {"measurement": "pK5(H5L) phosphonate", "setting": "[2]; listed as compound 1", "result": 1.48}, {"measurement": "IC50", "setting": "[3]", "result": 25, "unit": "µM"}, {"measurement": "IC50", "setting": "[3]; Mus musculus, Macrophage, 72 h", "result": "24.9 ± 5.17", "unit": "µM"}, {"measurement": "pK1(HL) amine", "setting": "[4]", "result": "11.68(2)"}, {"measurement": "pK2(H2L) phosphonate", "setting": "[4]", "result": "9.32(5)"}, {"measurement": "pK3(H3L) phosphonate", "setting": "[4]", "result": "6.15(6)"}, {"measurement": "pK4(H4L) triazole", "setting": "[4]", "result": "4.16(6)"}, {"measurement": "pK5(H5L) phosphonate", "setting": "[4]", "result": "0.67(6)"}, {"measurement": "pK4(H4L) triazole", "setting": "[4]; listed as compound 1", "result": 4.16}]}, {"molecule": "CCn1cnc(NC(P(=O)(O)O)P(=O)(O)O)n1", "note": "[Compound 2]", "values": [{"measurement": "pK1(HL) amine", "setting": "[2]", "result": "10.81(1)"}, {"measurement": "pK2(H2L) phosphonate", "setting": "[2]", "result": "9.43(1)"}, {"measurement": "pK3(H3L) phosphonate", "setting": "[2]", "result": "6.73(1)"}, {"measurement": "pK5(H5L) phosphonate", "setting": "[2]", "result": "1.69(1)"}, {"measurement": "IC50", "setting": "[3]; Mus musculus, Macrophage, 72 h", "result": "30.6 ± 4.64", "unit": "µM"}, {"measurement": "pK2(H2L) phosphonate", "setting": "[4]", "result": "9.56(2)"}, {"measurement": "pK3(H3L) phosphonate", "setting": "[4]", "result": "5.90(2)"}, {"measurement": "pK4(H4L) triazole", "setting": "[4]", "result": "3.32(2)"}, {"measurement": "pK4(H4L) triazole", "setting": "[4]; listed as compound 2", "result": 3.32}]}, {"molecule": "O=P(O)(O)C(NC1CCCCCC1)P(=O)(O)O", "note": "[incadronic acid, reference compound]", "values": [{"measurement": "IC50", "setting": "[3]; Mus musculus, Macrophage, 72 h", "result": "47.9 ± 1.39", "unit": "µM"}]}, {"molecule": "O=P(O)(O)C(O)(Cn1ccnc1)P(=O)(O)O", "note": "[zoledronic acid, reference compound]", "values": [{"measurement": "IC50", "setting": "[3]; Mus musculus, Macrophage, 72 h", "result": "24.5 ± 2.23", "unit": "µM"}]}]}
